Reference: patent publication US20050282743A1, “Molecular interactions in cells” (Arbor Vita Corporation, priority 2001, published 2005)
Ends that are not written are not given here. Peptide text beside a SMILES is read from it. * marks the point of attachment. Biotin = O=C1N[C@H]2[C@H](CS[C@H]2CCCCC(=O)*)N1

Biological target: T1, PDZ protein (GST-PDZ fusion) (Homo sapiens, UniProt O60307)
T1 construct: made in house; host or cells: E. coli (DH5alpha, BL21 or JM109)
Assay: G' assay (10 uM PL peptide), results of TABLE 7 and TABLE 12
Type: binding
Conditions: PDZ KIAA0561, PDZ Domain 1
Procedure, shortened: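 Same steps as the G-zero format, apart from a peptide concentration of 10 uM in place of 20 uM in step 2. Amino-terminally biotinylated PL peptides bind GST-PDZ fusions, and retained peptide is quantified by 450 nm absorbance.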

T1 sequence (O60307 whole entry, the tested form may be a part): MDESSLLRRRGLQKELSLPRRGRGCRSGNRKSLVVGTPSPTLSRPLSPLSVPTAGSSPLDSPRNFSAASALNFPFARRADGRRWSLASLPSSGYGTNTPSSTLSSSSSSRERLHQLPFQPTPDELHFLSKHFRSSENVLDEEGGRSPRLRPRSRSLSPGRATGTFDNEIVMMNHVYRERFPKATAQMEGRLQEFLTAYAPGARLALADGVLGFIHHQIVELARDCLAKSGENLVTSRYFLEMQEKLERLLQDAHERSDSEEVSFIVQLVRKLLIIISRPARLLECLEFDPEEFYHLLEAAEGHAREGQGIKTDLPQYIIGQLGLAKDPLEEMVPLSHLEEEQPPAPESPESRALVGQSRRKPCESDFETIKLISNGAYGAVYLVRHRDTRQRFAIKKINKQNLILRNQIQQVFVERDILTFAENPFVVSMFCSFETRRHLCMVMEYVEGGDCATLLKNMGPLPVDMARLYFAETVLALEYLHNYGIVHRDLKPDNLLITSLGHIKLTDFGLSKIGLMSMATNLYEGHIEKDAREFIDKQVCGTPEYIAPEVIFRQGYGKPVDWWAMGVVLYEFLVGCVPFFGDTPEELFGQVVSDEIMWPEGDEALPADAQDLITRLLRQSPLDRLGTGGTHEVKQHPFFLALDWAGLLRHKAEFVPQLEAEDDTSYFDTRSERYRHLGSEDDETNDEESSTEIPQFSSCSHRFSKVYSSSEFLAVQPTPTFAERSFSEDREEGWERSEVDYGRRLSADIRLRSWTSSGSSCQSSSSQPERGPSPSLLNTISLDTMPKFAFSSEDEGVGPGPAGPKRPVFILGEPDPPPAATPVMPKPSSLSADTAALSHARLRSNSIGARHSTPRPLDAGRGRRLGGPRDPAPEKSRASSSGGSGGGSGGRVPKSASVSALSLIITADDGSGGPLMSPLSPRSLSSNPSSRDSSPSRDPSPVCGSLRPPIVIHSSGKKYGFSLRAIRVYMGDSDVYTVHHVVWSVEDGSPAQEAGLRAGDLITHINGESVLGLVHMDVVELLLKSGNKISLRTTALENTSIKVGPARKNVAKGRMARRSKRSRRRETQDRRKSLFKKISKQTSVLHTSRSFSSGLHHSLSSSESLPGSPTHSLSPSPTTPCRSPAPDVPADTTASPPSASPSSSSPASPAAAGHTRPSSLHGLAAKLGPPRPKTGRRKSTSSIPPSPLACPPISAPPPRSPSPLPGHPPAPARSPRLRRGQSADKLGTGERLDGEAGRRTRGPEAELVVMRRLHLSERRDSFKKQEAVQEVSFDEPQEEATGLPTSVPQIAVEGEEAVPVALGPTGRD

Compound | Classification
CC[C@H](C)[C@H](NC(=O)[C@H](Cc1ccc(O)cc1)NC(=O)[C@H](CC(C)C)NC(=O)[C@H](CCC(N)=O)NC(=O)[C@H](Cc1c[nH]cn1)NC(=O)[C@H](CO)NC(=O)[C@H](C)NC(=O)[C@H](CC(C)C)NC(=O)[C@@H](NC(=O)[C@H](CC(=O)O)NC(=O)[C@H](CCSC)NC(=O)[C@H](Cc1ccccc1)NC(=O)[C@@H]1CCCN1C(=O)[C@H](CCCNC(=N)N)NC(=O)[C@@H](NC(=O)[C@H](CC(C)C)NC(=O)[C@H](CC(N)=O)NC(=O)[C@H](CC(=O)O)NC(=O)[C@@H](NC(=O)[C@H](CO)NC(=O)CCCC[C@@H]1SC[C@@H]2NC(=O)N[C@@H]21)[C@@H](C)O)C(C)C)[C@@H](C)O)C(=O)O [presenilin-2] (Biotin-STDNLVRPFMDTLASHQLYI-OH; C-terminus assumed) | 1 (A450 nm 0-1)
KTMPAATYRLLTGQEQPVYL (Biotin-KTMPAATYRLLTGQEQPVYL) [MINT-3] | 1 (A450 nm 0-1)
